What all share (assay): NCI-60 cell line screen, 48 h
In test [1] the test system is OVCAR-5 ovarian.
Test [2] deals with SN12C renal.
Test [3] concerns CCRF-CEM leukemia.
Test [4] has as its system MDA-MB-435.
Test [5] has as its system KM12 colon.
Test [6] concerns SF-295 CNS.
In test [7] the test system is DU-145 prostate.
The test system of test [8] is PC-3 prostate.
In test [9] the test system is U251 CNS.
Test [10] has as its system SNB-19 CNS.

Where “and” joins values, the source holds several entries; their conditions need not be identical. Equal values may be shown once.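 Interpolation was linear, between the two tested concentrations surrounding the appropriate level; five concentrations were tested over 48 hours in 96-well plates. GI50: concentration for 50% inhibition of growth. At the TGI there is no net growth.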 Where only a bound is given, the exact number is not on record here.

The text below walks through data of PubChem BioAssay (NCI).

With `COc1cccc2c1nc1cccc(OC)c1[n+]2[O-]`, the GI50 in test [1] was 27.8 µM; in test [2], 4.15 µM; in test [3], 2.35 µM; in test [4], 16.8 µM; in test [5] it was 11.6 µM; in [6], 2.11 µM. Moreover, the GI50 in test [7] is 4.54 µM; in test [8] it was 13.3 µM; in test [9] it was 6.83 µM. Further, the TGI in test [1] was found to be 93 µM; in [2] it was 16.3 µM; in test [3], 13.3 µM; in test [4] it was 44.8 µM; in test [5] it was 28.4 µM; in test [6], 7.96 µM. Besides, the TGI in test [7] is 16.9 µM; in test [8], 37 µM; in test [9], 21.3 µM.

On to `C/C(=C1/N=C(c2ccccc2)OC1=O)c1ccc(C)cc1`, for which the TGI in test [1], in [2], in test [3], in test [4], in test [5] and in test [6] was > 100 µM each time. For the same compound, the TGI in test [7], in test [8], in test [10] and in test [9] was > 100 µM throughout.

With `NC(=O)c1ccc2nc(-c3ccc(C4(N)CCC4)cc3)c(-c3ccccc3)n2n1`, the GI50 in [1] is 12.5 µM; in [2], 12 µM; in [3], 1.41 µM; in [4] it was 11.8 µM; in test [5] it was 10.5 µM; in test [6], 1.26 µM. The GI50 in [7] was 14.8 µM; in test [8] it was 0.183 µM; in test [10], 11.3 µM; in test [9], 6.27 µM. For the same compound, the TGI turned out to be 47 µM in test [1]; 27.5 µM in test [2]; 44.4 µM in [3]; 24.4 µM in test [4]; 25.3 µM in test [5]; 15.4 µM in test [6]. The TGI in test [7] was 33.1 µM; in test [8], 20.1 µM; in [10], 25.8 µM; in test [9], 21.5 µM.

On to `O=C(Nc1ccc(Cl)cc1F)c1cc(F)ccc1O`, for which the GI50 in test [1] was 3.26 µM; in [2], 0.643 µM; in test [3] it was 3.16 µM; in test [4], 0.626 µM; in test [5], 2.03 µM; in [6], 1.8 µM. The GI50 in [7] was 1.24 µM; in test [8], 1.49 µM; in test [10], 0.669 µM; in test [9], 0.832 µM. Moreover, the TGI in test [1] is 23 µM; in [2], 5.64 µM; in [3], > 100 µM; in test [4], 5.51 µM; in test [5] it was 5.56 µM; in test [6], 3.57 µM. Besides, the TGI in test [7] was > 46.3 µM; in test [8] it was 6.73 µM; in [10] it was 18.6 µM; in test [9] it was > 38.8 µM.

As to `CN1C(=O)N(C)C2C1NN=c1s/c(=C\c3c[nH]c4ccccc34)c(=O)n12` (stereo unspecified), the GI50 in test [1] is 0.0731 µM; in test [2], 0.0714 µM; in [3], 0.0337 µM; in [4], 0.0162 µM; in test [5] it was 0.04 µM; in test [6], 0.0304 µM. The GI50 in [7] is 0.0428 µM; in test [8], 0.0413 µM; in test [10] it was 0.0443 µM; in test [9], 0.0413 µM. Moreover, the TGI in [1] is > 100 µM; in test [2] it was > 100 µM; in test [3], > 100 µM; in test [4], 0.0482 µM; in test [5], > 100 µM; in test [6], 33.6 µM. For the same compound, the TGI in test [7] was > 28.9 µM; in test [8], > 100 µM; in [10] it was > 100 µM; in test [9], > 100 µM.

`CN(C)c1ccc(/C=C/c2ccnc3ccc4ccccc4c23)cc1`: the TGI in test [2], in test [3], in test [4], in test [5], in test [7] and in test [8] was > 100 µM each time. Besides, the TGI in test [10] and in test [9] was > 100 µM each time.

For the compound `Nc1c(S(=O)(=O)O)cc(Nc2cccc(S(N)(=O)=O)c2)c2c1C(=O)c1ccccc1C2=O`, the TGI in test [1] is > 100 µM; in [2] it was > 100 µM; in [3], > 100 µM; in test [4] it was 32.6 µM; in test [5] it was > 100 µM; in test [6], > 100 µM. Also, the TGI in test [7], in test [8], in [10] and in [9] was > 100 µM in each case.

For `COc1cc(/C=C2\CCCC3C2=Nc2ccccc2NC3c2cc(OC)c(OC)c(OC)c2)cc(OC)c1OC` (stereo unspecified), the GI50 in test [1] is 3.68 µM; in [2] it was 2.1 µM; in test [3], 0.591 µM; in test [4] it was 0.425 µM; in test [5], 0.863 µM; in test [6], 3.65 µM. Also, the GI50 is 1.87 µM in test [7], 2.69 µM in test [8] and 8.37 µM in test [10]. Further, the TGI was 11.9 µM in test [1]; 14 µM in test [2]; 3.6 µM in [3]; 4.4 µM in test [4]; 2.21 µM in [5]; > 100 µM in [6]. The TGI is 6.8 µM in test [7], > 100 µM in test [8] and > 100 µM in test [10].

Take `[C-]#[O+].[C-]#[O+].[Ir].[O-]c1ccc2ccccc2c1N=Nc1ccccc1`: the TGI in test [1] was 38.3 µM; in [2] it was 23.9 µM; in [3], 7.42 µM; in test [4] it was 54.4 µM; in test [5] it was > 44.1 µM; in test [6], > 72.1 µM. In addition, the TGI in test [7] was 31.9 µM; in test [8], 54 µM; in test [10], > 70.7 µM; in test [9], 34.9 µM. Also, the GI50 in test [5] was 13 µM; in [6], 45.9 µM.

On to `CCCCCCCCCCCCOC1C(CNCC2OC3OC(C)(C)OC3C2NC(=O)Nc2ccc(C(F)(F)F)cc2)OC2OC(C)(C)OC21` (stereo unspecified), for which the GI50 in test [1] was 9.11 µM; in test [2], 7.04 µM; in test [3] it was 2.45 µM; in [4], 5.27 µM; in test [5] it was 3.7 µM; in test [6], 9 µM. Further, the GI50 in test [7] was 5.03 µM; in test [8], 6.68 µM; in [10], 9.07 µM; in test [9], 4.63 µM. The TGI in test [1] stood at 17 µM; in [2] it was 15.3 µM; in test [3], 12.5 µM; in test [4], 13.4 µM; in [5], 8.45 µM; in test [6], 17.9 µM. The TGI in [7] is 11.9 µM; in test [8], 13.2 µM; in [10], 18 µM; in [9], 12.2 µM.

For `COc1cccc2c1C(=O)c1c(O)c3c(c(O)c1C2=O)C[C@@](O)(C(=O)CO)C[C@@H]3OC1CC(OC(C)=O)C(OC(C)=O)C(C)O1` (stereo partly specified), the GI50 is 1.16 µM in test [1]; 0.255 µM in [2]; 0.0435 µM in test [3]; 1.27 µM in test [4]; 0.549 µM in test [5]; 0.234 µM in test [6]. The GI50 is 0.12 µM in test [7], 1.48 µM in test [8], 0.496 µM in [10] and 0.275 µM in test [9]. Further, the TGI in [1] worked out at 5 µM; in test [2] it was 5.87 µM; in test [3], 0.764 µM; in test [4] it was 4.63 µM; in [5], 3.74 µM; in test [6] it was 1.25 µM. Further, the TGI in test [7] was 0.719 µM; in [8] it was > 23.3 µM; in test [10], > 100 µM; in test [9], 7.93 µM.

On to `c1ccc(CCCNc2nnnc3ccccc23)cc1`, for which the TGI in test [1], in test [2], in test [3], in test [4], in test [5] and in test [6] was > 100 µM throughout. The TGI in [7], in [8], in [10] and in test [9] was > 100 µM in each case.

Regarding `Clc1nc(Cl)c2ncn(C/C=C/Cn3cnc4c(Cl)nc(Cl)nc43)c2n1`, the GI50 is 19.5 µM in test [1]; 19.7 µM in [2]; 10.7 µM in test [3]; 19.8 µM in test [4]; 17.3 µM in test [5]; 16.8 µM in test [6]. Further, the GI50 in test [7] is 15.2 µM; in [8], 17.5 µM; in [10], 19.1 µM; in test [9] it was 16.8 µM. The TGI in [1] was determined as 35.1 µM; in test [2] it was 40.7 µM; in test [3], 25.3 µM; in test [4] it was 39.4 µM; in [5], 33.9 µM; in [6], 31.3 µM. Further, the TGI in test [7] was 28.6 µM; in test [8] it was 33.2 µM; in [10], 38 µM; in test [9], 30.7 µM.

`FC(F)(F)c1[nH]ncc1-c1nc2c(N3CCCCC3)cc3[nH]ncc3c2c2c1CCCC2`: the GI50 in test [1] is 1.04 µM; in test [2], 0.878 µM; in test [3] it was 1.14 µM; in [4], 0.741 µM; in test [5], 0.793 µM; in [6], 0.857 µM. Also, the GI50 was 0.702 µM in test [7], 0.91 µM in test [8], 1.25 µM in test [10] and 0.87 µM in test [9]. In addition, the TGI in test [1] was 3.61 µM; in [2] it was > 15.7 µM; in test [3], > 50 µM; in test [4], 2.19 µM; in test [5] it was 7.95 µM; in test [6], 3.16 µM. The TGI was > 13 µM in test [7], > 13.8 µM in test [8], > 16.5 µM in test [10] and 5.67 µM in test [9].

As to `COc1cc([N+](=O)[O-])c(S(=O)(=O)O)cc1N`, the TGI in test [1], in test [2], in test [3], in test [4], in test [5] and in test [7] was > 100 µM in each case. For the same compound, the TGI in test [8], in test [10] and in [9] was > 100 µM each time.

As to `CN(C)CCNC(=O)c1cccc2cc([N+](=O)[O-])ccc12`, the TGI in [1] was 5.47 µM and 0.87 µM; in test [2], 7.57 µM and 2.24 µM; in test [3], 6.07 µM and 0.939 µM; in [4], 7.7 µM; in test [6], 3.77 µM and 2.66 µM; in test [7], 17.1 µM. In addition, the TGI in test [8] is 9.44 µM; in test [10], 16.1 µM and 2.38 µM; in test [9], 11.9 µM and 2.79 µM. Moreover, the GI50 in test [2] is 1.69 µM and 0.178 µM; in test [3], 0.719 µM and 0.141 µM; in test [6], 0.989 µM and 0.414 µM; in test [10] it was 2.55 µM and 0.342 µM; in [9], 2.19 µM and 0.233 µM.

With `C=CCC(N[C@@H](CO)c1ccccc1)c1ccccn1` (stereo partly specified), the GI50 is > 100 µM in test [1]; 22.9 µM in test [2]; 74.4 µM in [3]; > 100 µM in test [4]; > 100 µM in test [5]; > 100 µM in [6]. The GI50 in [7], in test [8] and in test [9] was > 100 µM each time. Moreover, the TGI in test [1], in test [2], in test [3], in test [4], in test [5] and in test [6] was > 100 µM throughout. Moreover, the TGI in test [7], in test [8] and in test [9] was > 100 µM throughout.

For `Clc1ccccc1-c1nc(-c2ccncc2)no1`, the TGI in [1], in [2], in test [4], in [5], in test [6] and in [7] was > 100 µM each time. Also, the TGI in [8], in test [10] and in [9] was > 100 µM each time.
